The values that follow are results of earlier work, collected in patent publication EP2527351B1, “Lipophosphonoxins, method of their preparation and use” (priority 2011, dated 2012).

In the series the test system is Mycobacterium tuberculosis strains. The settings on record: multidrug-resistant strains, in vitro; cited from earlier work.

One may read the MIC as the lowest concentration that inhibits growth of the organism. In the case of caprazamycins [CPZs], the MIC is reported as 3.13 µg/mL.
